In US20130172374A1, “SOLID COMPOSITION FOR CONTROLLED RELEASE OF IONIZABLE ACTIVE AGENTS WITH POOR AQUEOUS SOLUBILITY AT LOW PH AND METHODS OF USE THEREOF” (Portola Pharmaceuticals, Inc., priority 2008, published 2013):
Like-named read-outs stand apart in the source and are kept apart here.

Experiments:
[1] = known drug, background; cited from earlier work
[2] = known drug, background; cited from earlier work; remark: listed apart in the source
[3] = known drug, background; cited from earlier work; remark: listed apart in the source
logP = assay type: physicochemical
logD (pH7.4) = assay type: physicochemical
pKa = assay type: physicochemical
aqueous solubility = assay type: physicochemical
moisture sensitivity = assay type: physicochemical

logP (logP)	logD (pH7.4) (logD (pH7.4))	pKa (pKa)	aqueous solubility (aqueous solubility; at about 37° C.)	aqueous solubility of the free acid form (aqueous solubility; free acid form, pH 1.0-7.4)	moisture sensitivity (moisture sensitivity)	Structure (SMILES)	logD (pH7.4) [1]	logP [2]	pKa [3]
						CC(C(=O)O)c1cccc(C(=O)c2ccccc2)c1 (racemic) [Ketoprofen, (RS)-2-(3-benzoylphenyl)propanoic acid]	about 1.34	about 0.97	about 5.94
about 2.5	about −1.6	about 3.3	< 100 µg/mL	< 100 µg/mL	moisture sensitive	CNc1cc2[nH]c(=O)n(-c3ccc(NC(=O)NS(=O)(=O)c4ccc(Cl)s4)cc3)c(=O)c2cc1F.[K] [Compound 1, [4-(6-fluoro-7-methylamino-2,4-dioxo-1,4-dihydro-2H-quinazolin-3-yl)-phenyl]-5-chloro-thiophen-2-yl-sulfonylurea potassium salt]			
						COc1ccc2c(c1)c(CC(=O)O)c(C)n2C(=O)c1ccc(Cl)cc1 [Indomethacin]	about 0.30	about 3.8	
